The species named for experiment [1] is Cavia porcellus. Nature of the experiment: Dissociation constant (KB) for competitive inhibition of BHR 920 induced depression of neurotransmission in isolated guinea pig atrium. In kind it is functional. The settings on record: Cardiac atrium.
The species entered for experiment [2] is Oryctolagus cuniculus. Nature of the experiment: Ability to block the norepinephrine constrictor response in the rabbit ear artery in a competitive fashion. Type of experiment: functional.
The species named for experiment [3] is Canis familiaris. Put plainly: Effective concentration of 100% release of [3H]norepinephrine from electrically stimulated dog splenic arteries. In kind it is functional, Canis lupus familiaris.
The species named for experiment [4] is Cavia porcellus. Nature of the experiment: Concentration-related inhibition of response to sympathetic nerve stimulation in isolated guinea pig atrium mediated by alpha-2 receptors. In kind it is functional. Conditions: Cardiac atrium.

Data on two molecules can be found in ChEMBL document CHEMBL1122276, “6-Chloro-2,3,4,5-tetrahydro-3-methyl-1H-3-benzazepine: a potent and selective antagonist of alpha 2-adrenoceptors” (J Med Chem, 1983).

Usually EC50 stands for the concentration that produces a half-maximal response. Higher therefore signals a need for much substance.

Consider `CN1CCc2cccc(Cl)c2CC1.Cl`, for which the Kb in experiment [1] was 17 nM; in experiment [2], 900 nM. This molecule also displayed an EC100 in experiment [3] of 210 nM.
As to `C=CCN1CCc2nc(N)sc2CC1` [TALIPEXOLE], the EC50 in experiment [4] amounted to 100 nM.
